Like-named read-outs stand apart in the source and are kept apart here.
Legend:
α1 = test: Anti-α1 action: inhibition of norepinephrine-induced tonic contraction of isolated guinea pig thoracic aorta; parameters: species or system guinea pig (Hartley, male); conditions: tonic contraction induced by 10^-5 M norepinephrine = 100%
Description: (§1) With respect to the compounds of the present invention, their anti-α1 action and anti-serotonin action were investigated by the testing methods which will be described below.
The thoracic aorta of each Hartley male guinea pig (body weight: 300-500 g) was excised. […] Taking the tonic contraction induced by 10^-5 M norepinephrine (NE) as 100%, the percent contractions upon addition of each test drug at 10^-8 and 10^-7 M were determined as anti-α1 action.

[1] = Anti-serotonin action (anti-5-HT action): inhibition of serotonin-induced phasic contraction of isolated guinea pig superior mesenteric artery; parameters: species or system guinea pig (Hartley, male); conditions: phasic contraction induced by 10^-5 M serotonin = 100%, read-out: Anti 5-HT action (percent contraction, % of Control); for remaining activity at 1 µM: 10^-6 M test drug; for remaining activity at 0.1 µM: 10^-7 M test drug
Description: as §1
Taking the phasic contraction induced by 10^-5 M serotonin as 100%, the percent contractions in the presence of each test drug at 10^-7 and 10^-6 M were determined as anti-5-HT action.

Structure (SMILES)	Anti α1 action (percent contraction, % of Control) (α1; 10^-7 M test drug, 0.1 µM)	Anti α1 action (percent contraction, % of Control) (α1; 10^-8 M test drug, 0.01 µM)	remaining activity at 1 µM ([1]; guinea pig) [%]	remaining activity at 0.1 µM ([1]; guinea pig) [%]	remaining activity at 1 µM [1] [%]	remaining activity at 0.1 µM [1] [%]
CN1CCC(=O)c2ccn(CCCCN3CCC(C(=O)c4ccc(F)cc4)CC3)c2C1=O [Compound No. 60, 1-[4-[4-(4-fluorobenzoyl)piperidin-1-yl]butyl]-7-methyl-6,7-dihydropyrrolo[2,3-c]azepine-4,8(1H,5H)-dione]	20.5 % of Control	43.9 % of Control	11.8	62.9		
O=C(c1ccc(F)cc1)C1CCN(CCCCn2ccc3c2C(=O)N(Cc2ccccc2)CCC3=NO)CC1 [Compound No. 66]	10.4 % of Control	19.3 % of Control			6.9	77.6
CN1CCC(=NOC(=O)c2ccccc2)c2ccn(CCCCN3CCC(C(=O)c4ccc(F)cc4)CC3)c2C1=O [Compound No. 92, 4-benzoyloxyimino-1-[4-[4-(4-fluorobenzoylpiperidin)-1-yl]butyl]-7-methyl-6,7-dihydropyrrolo[2,3-c]azepin-8(1H,5H)-one]	21.5 % of Control	49.3 % of Control			12.5	48.5
CCN1CCC(=NO)c2ccn(CCCCN3CCC(C(=O)c4ccc(F)cc4)CC3)c2C1=O [Compound No. 65, 7-ethyl-1-[4-[4-(4-fluorobenzoyl)-piperidin-1-yl]butyl]-4-hydroxyimino-6,7-dihydro-pyrrolo[2,3-c]azepin-8-(1H,5H)-one]	9.9 % of Control	19.5 % of Control			3.6	19.9
CCCN1CCC(=NO)c2ccn(CCCCN3CCC(C(=O)c4ccc(F)cc4)CC3)c2C1=O [Compound No. 75, 1-[4-[4-(4-Fluorobenzoyl)piperidin-1-yl]butyl]-4-hydroxyimino-7-propyl-6,7-dihydropyrrolo[2,3-c]-azepin-8(1H,5H)-one]	17.9 % of Control	37.0 % of Control			8.2	12.9
CN1CCC(=NO)c2ccn(CCCCN3CCC(Oc4ccc(F)cc4)CC3)c2C1=O [Compound No. 84, 1-[4-[4-(4-Fluorophenoxy)piperidin-1-yl]butyl]-4-hydroxyimino-7-methyl-6,7-dihydropyrrolo[2,3-c]-azepin-8(1H,5H)-one]	67.0 % of Control	86.5 % of Control			3.8	60
CN1CCC(=NO)c2ccn(CCCCN3CCC(c4ccccc4)CC3)c2C1=O [Compound No. 51, 4-hydroxyimino-7-methyl-1-[4-(4-phenylpiperidin-1-yl)butyl]-6,7-dihydropyrrolo-[2,3-c]azepin-8(1H,5H)-one]	30.8 % of Control	74.9 % of Control			54.4	84.4
CN1CCC(=NO)c2ccn(CCCCN3CCC(C(=O)c4ccc(F)cc4)CC3)c2C1=O [Compound No. 61, 1-[4-[4-(4-fluorobenzoyl)piperidin-1-yl]butyl]-4-hydroxyimino-7-methyl-6,7-dihydropyrrolo[2,3-c]azepin-8-(1H,5H)-one]	21.4 % of Control	44.7 % of Control			4.1	12.1
CC(=O)ON=C1CCN(C)C(=O)c2c1ccn2CCCCN1CCC(C(=O)c2ccc(F)cc2)CC1 [Compound No. 91, 4-acetoxyimino-1-[4-[4-(4-fluorobenzoyl)piperidin-1-yl)butyl]-7-methyl-6,7-dihydropyrrolo[2,3-c]azepin-8(1H,5H)-one]	35.5 % of Control	58.2 % of Control			10.3	16.1
CN1CCC(=O)c2ccn(CCCCN3CCC(C(O)(c4ccc(F)cc4)c4ccc(F)cc4)CC3)c2C1=O [Compound No. 54, 1-[4-[4-[Bis(4-fluorophenyl)hydroxymethyl]-piperidin-1-yl]butyl]-7-methyl-6,7-dihydropyrrolo[2,3-c]azepine-4,8(1H,5H)-dione]	26.0 % of Control	90.4 % of Control			14.7	62.9
CN1CCC(=NO)c2ccn(CCCCN3CCC(C(=O)c4ccc(F)cc4)CC3)c2C1=O.Cc1ccc(S(=O)(=O)O)cc1 [Compound No. 62, 1-[4-[4-(4-fluorobenzoyl)piperidin-1-yl]butyl]-4-hydroxyimino-7-methyl-6,7-dihydropyrrolo[2,3-c]azepin-8(1H,5H)-one p-toluenesulfonate]	17.1 % of Control	26.8 % of Control	8.2	47.4		
O=C1CCN(Cc2ccccc2)C(=O)c2c1ccn2CCCCN1CCC(c2ccccc2)CC1 [Compound No. 48, 7-Benzyl-1-[4-(4-phenylpiperidin-1-yl)butyl]-6,7-dihydropyrrolo[2,3-c]azepine-4,8(1H,5H)-dione]	37.7 % of Control	77.4 % of Control			49	88
O=C1CCNC(=O)c2c1ccn2CCCCN1CCC(C(=O)c2ccc(F)cc2)CC1 [Compound No. 81, 1-[4-[4-(4-Fluorobenzoyl)piperidin-1-yl]butyl]-6,7-dihydropyrrolo[2,3-c]azepine-4,8(1H,5H)-dione]	28.9 % of Control	57.5 % of Control			14.3	57.1
